Test results taken from PubChem BioAssay (NCI).
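Cells were grown in 96-well plates and exposed to each compound for 48 hours at five concentrations; endpoints were interpolated linearly between bracketing concentrations, or set to the highest concentration if not reached. Here, GI50 denotes the concentration required for 50% inhibition of growth. TGI: total growth inhibition.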

Assays:
Test in all cases: NCI-60 cell line screen, 48 h
DLD-1 colon = tested on: DLD-1 colon
HCT-15 colon = tested on: HCT-15 colon
KM20L2 colon = tested on: KM20L2 colon
M14 melanoma = tested on: M14 melanoma
NCI-H522 lung = tested on: NCI-H522 lung
OVCAR-4 ovarian = tested on: OVCAR-4 ovarian
RPMI-8226 leukemia = tested on: RPMI-8226 leukemia
SF-295 CNS = tested on: SF-295 CNS
SNB-19 CNS = tested on: SNB-19 CNS
SR leukemia = tested on: SR leukemia

CN(c1ccccc1)c1c(Cl)c(=O)oc2c1ccc1occc12
TGI (DLD-1 colon): > 100 µM
TGI (HCT-15 colon): > 100 µM
TGI (KM20L2 colon): > 100 µM
TGI (M14 melanoma): > 100 µM
TGI (NCI-H522 lung): > 100 µM
TGI (OVCAR-4 ovarian): > 100 µM
TGI (RPMI-8226 leukemia): > 100 µM
TGI (SF-295 CNS): > 100 µM
TGI (SNB-19 CNS): > 100 µM
TGI (SR leukemia): > 100 µM

c1ccc2c(c1)cc1n2CC2CN=NC12 (centres undefined)
TGI (DLD-1 colon): > 100 µM
TGI (HCT-15 colon): > 100 µM
TGI (KM20L2 colon): > 100 µM
TGI (M14 melanoma): > 100 µM
TGI (NCI-H522 lung): > 100 µM
TGI (OVCAR-4 ovarian): > 100 µM
TGI (RPMI-8226 leukemia): > 100 µM
TGI (SF-295 CNS): > 100 µM
TGI (SNB-19 CNS): > 100 µM
TGI (SR leukemia): > 100 µM

CCOc1ccc(NC(=O)CC2C(=O)Nc3ccccc3S2(=O)=O)cc1 (centres undefined)
TGI (DLD-1 colon): > 100 µM
TGI (HCT-15 colon): > 100 µM
TGI (KM20L2 colon): > 100 µM
TGI (NCI-H522 lung): > 100 µM
TGI (OVCAR-4 ovarian): > 100 µM
TGI (RPMI-8226 leukemia): > 100 µM
TGI (SF-295 CNS): > 100 µM
TGI (SNB-19 CNS): > 100 µM
TGI (SR leukemia): > 100 µM

NC(=O)NC1C(C(N)=O)N(Cc2ccccc2)C(=O)N1Cc1ccccc1 (centres undefined)
TGI (DLD-1 colon): > 100 µM
TGI (HCT-15 colon): > 100 µM
TGI (KM20L2 colon): > 100 µM
TGI (M14 melanoma): > 100 µM
TGI (NCI-H522 lung): > 100 µM
TGI (OVCAR-4 ovarian): > 100 µM
TGI (RPMI-8226 leukemia): > 100 µM
TGI (SF-295 CNS): > 100 µM
TGI (SNB-19 CNS): > 100 µM
TGI (SR leukemia): > 100 µM

O=C(NNc1ccccc1)/C(=C/c1ccc2c(c1)OCO2)NC(=O)c1ccccc1
TGI (DLD-1 colon): > 100 µM
TGI (HCT-15 colon): > 100 µM
TGI (KM20L2 colon): > 100 µM
TGI (M14 melanoma): > 100 µM
TGI (NCI-H522 lung): > 100 µM
TGI (OVCAR-4 ovarian): > 100 µM
TGI (RPMI-8226 leukemia): > 100 µM
TGI (SF-295 CNS): > 100 µM
TGI (SNB-19 CNS): > 100 µM
TGI (SR leukemia): > 100 µM

CCCCCCC[CH2][Sn]1([CH2]CCCCCCC)[O]C(=O)c2cccnc2[O]1
GI50 (DLD-1 colon): > 100 µM
TGI (DLD-1 colon): > 100 µM
GI50 (HCT-15 colon): > 100 µM
TGI (HCT-15 colon): > 100 µM
GI50 (KM20L2 colon): > 100 µM
TGI (KM20L2 colon): > 100 µM
GI50 (M14 melanoma): > 100 µM
TGI (M14 melanoma): > 100 µM
GI50 (NCI-H522 lung): > 100 µM
TGI (NCI-H522 lung): > 100 µM
GI50 (OVCAR-4 ovarian): > 100 µM
TGI (OVCAR-4 ovarian): > 100 µM
GI50 (RPMI-8226 leukemia): > 100 µM
TGI (RPMI-8226 leukemia): > 100 µM
GI50 (SF-295 CNS): > 100 µM
TGI (SF-295 CNS): > 100 µM
GI50 (SNB-19 CNS): > 100 µM
TGI (SNB-19 CNS): > 100 µM
GI50 (SR leukemia): > 100 µM
TGI (SR leukemia): > 100 µM
